Measurements reported in PMC7006766, “Coumarins from Magydaris pastinacea as inhibitors of the tumour-associated carbonic anhydrases IX and XII: isolation, biological studies and in silico evaluation” (Journal of Enzyme Inhibition and Medicinal Chemistry, 2020).
Like-named read-outs stand apart in the source and are kept apart here.

Columns and labels:
[1] = target: T1, hCA XII (Homo sapiens, UniProt O43570); test: biochemical; conditions: stopped flow, 6 h preincubation, mean of three assays
[2] = target: T2, hCA I (Homo sapiens, UniProt P00915); format: biochemical
T2 construct: made in house

[3] = target: T3, hCA II (Homo sapiens, UniProt P00918); format: biochemical
T3 construct: made in house

[4] = target: T4, hCA IX (Homo sapiens, UniProt Q16790); format: biochemical; conditions: for Ki: stopped flow, 6 h preincubation, mean of three assays
T4 construct: made in house

[5] = system: HeLa cells; test: MTT cytotoxic assay in cancer HeLa cells; format: cell-based; conditions: Homo sapiens, read-out: IC50 (concentration of compound that reduces the cell viability to 50%)
Method: Human carcinoma HeLa cell line was obtained from the American Type Culture Collection (ATCC, Rockville, MD). Cells were grown in Dulbecco’s modified Eagle’s medium (DMEM) with high glucose, supplemented with 10% foetal calf serum (FCS), penicillin (100 units/mL)–streptomycin (100 μg/mL), and 2 mM L-glutamine in a 5% CO2 incubator at 37 °C. Subcultures of the HeLa cells were grown in T-75 culture flasks and passaged with a trypsin-EDTA solution. Cell culture materials were purchased from Invitrogen (Milan, Italy).
The in vitro cytotoxic effect of coumarins 5, 9–12, 15 was evaluated in cancer HeLa cells by the MTT (3-(4,5-dimethylthiazol-2-yl)-2,5-diphenyltetrazolium bromide) reduction assay. Cancer cells were seeded in 96-well plates (density of 3 × 10^4 cells/mL) in 100 μL of medium and cultured for 48 h (80% of cell confluence). Cells were subsequently incubated for 48 h with various concentrations (0.1–100 μM, dissolved in DMSO) of coumarins in culture medium (treated cells). Treated cells were compared for viability to untreated cells (control cells) and vehicle-treated cells (incubated for 48 h with an equivalent volume of DMSO; the maximal final concentration was 1%). After the cell medium removing and washing, cells were subjected to the MTT test[35]. After incubation (3 h), colour development was measured at 570 nm with an Infinite 200 auto microplate reader (Infinite 200, Tecan, Austria); the absorbance is proportional to the number of viable cells. Two independent experiments were performed.

[6] = system: 4T1 cells; conditions: encapsulated in nanoliposomes vs free compound; cited from earlier work
[7] = target: T1, hCA XII
[8] = stopped flow, 6 h preincubation, mean of three assays, read-out: Ki hCA I
[9] = stopped flow, 6 h preincubation, mean of three assays, read-out: Ki hCA II

T1 sequence (O43570 25-354): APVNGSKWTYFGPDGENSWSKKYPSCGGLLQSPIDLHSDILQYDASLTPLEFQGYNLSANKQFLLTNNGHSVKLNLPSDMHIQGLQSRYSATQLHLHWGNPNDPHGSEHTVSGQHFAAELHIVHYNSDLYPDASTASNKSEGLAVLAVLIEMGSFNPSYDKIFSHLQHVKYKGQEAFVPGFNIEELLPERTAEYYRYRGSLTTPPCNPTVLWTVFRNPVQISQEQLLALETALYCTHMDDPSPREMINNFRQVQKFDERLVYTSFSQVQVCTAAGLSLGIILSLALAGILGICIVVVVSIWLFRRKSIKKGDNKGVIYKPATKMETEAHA
T2 sequence (P00915 whole entry): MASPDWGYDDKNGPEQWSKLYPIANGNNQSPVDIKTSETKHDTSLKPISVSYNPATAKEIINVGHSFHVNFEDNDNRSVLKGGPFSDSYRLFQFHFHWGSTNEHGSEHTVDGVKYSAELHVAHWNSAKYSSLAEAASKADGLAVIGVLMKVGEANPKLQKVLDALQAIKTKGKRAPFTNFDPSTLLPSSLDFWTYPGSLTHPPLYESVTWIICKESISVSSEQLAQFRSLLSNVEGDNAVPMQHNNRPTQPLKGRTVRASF

Structure (SMILES)	Ki [1]	Ki [2, 8]	Ki [3, 9]	Ki [4]	IC50 ([5]; HeLa, 48 h)	Ki [2]	Ki [3]	change of antiproliferative effect against 4T1 cells when encapsulated in nanoliposomes [6]	Ki ratio I/XII ([7]; selectivity over off-target CA I/II)	IC50 ([5]; HeLa cells, MTT, measured at 48 h, normoxic)	Ki ratio XII/IX (selectivity index hCA IX over hCA XII) [4]	Ki ratio IX/XII ([7]; selectivity for hCA XII)
C/C(=C\COc1c2occc2cc2ccc(=O)oc12)CO [Compound 4, E-trichoclin]	550 nM	> 10000 nM	> 10000 nM	2340 nM								
COc1c2ccoc2c(OC)c2oc(=O)ccc12 [Compound 3, isopimpinellin]	590 nM	> 10000 nM	> 10000 nM	160 nM								
COc1c2ccoc2c(OC/C=C(\C)CO)c2oc(=O)ccc12 [Compound 5, E-5-methoxy-trichoclin]	63.5 nM	> 10000 nM	> 10000 nM	1500 nM	> 100000 nM							
COc1c2ccoc2cc2oc(=O)ccc12 [Compound 1, begapten]	855 nM	> 10000 nM	> 10000 nM	1950 nM								
COc1c2ccoc2c(OCC=C(C)C)c2oc(=O)ccc12 [Compound 7, phellopterin]	787 nM	> 10000 nM	> 10000 nM	202 nM								
COc1ccc2ccc(=O)oc2c1CC=C(C)C [Compound 12, osthol]	74.5 nM	> 10000 nM	> 10000 nM	2470 nM	98000 nM							
CC1(C)O[C@@H]1COc1c2occc2cc2ccc(=O)oc12 [Compound 8, heraclenin]				162 nM		> 10000 nM	> 10000 nM					
COc1cc2ccc(=O)oc2c2c1O[C@H](C(C)(C)O)C2 [Compound 11, Magydarin]	623 nM	> 10000 nM	> 10000 nM	151 nM	> 100000 nM							
CC(C)(O)[C@H](O)COc1c2occc2cc2ccc(=O)oc12 [Compound 9, (-)-heraclenol]	814 nM	> 10000 nM	> 10000 nM	27.5 nM	> 100000 nM							
CC(C)=CCC/C(C)=C/CC/C(C)=C/COc1ccc2ccc(=O)oc2c1 [Compound 15, umbelliprenin]	5.8 nM	> 10000 nM	> 10000 nM	266 nM	75000 nM			increased by five folds	> 1724			
CC(=O)O[C@@H](COc1c2occc2cc2ccc(=O)oc12)C(C)(C)O [Compound 10, (+)-heraclenol acetate]	> 10000 nM	> 10000 nM	> 10000 nM	192 nM						> 100000 nM	> 52	
CC(C)=CCOc1c2occc2cc2ccc(=O)oc12 [Compound 6, imperatorin]	833 nM	> 10000 nM	> 10000 nM	221 nM								
COc1ccc2ccc(=O)oc2c1C[C@H](OC(C)=O)C(C)(C)O [Compound 14, 2′-acetoxy-3′-hydroxy-osthol]	291 nM	> 10000 nM	> 10000 nM	> 10000 nM								> 34
COc1ccc2ccc(=O)oc2c1C[C@@H]1OC1(C)C [Compound 13, meranzin]	> 10000 nM	> 10000 nM	> 10000 nM	1890 nM							> 5	
COc1c2occc2cc2ccc(=O)oc12 [Compound 2, xanthotoxin]	876 nM	> 10000 nM	> 10000 nM	195 nM								
